A short description of series [1]: optical density / appearance of emulsion. The class given is physicochemical. The note with it: for optical density of emulsion: emulsions prepared in the same manner. On the procedure: (§1) The relative stability of a PFDMA emulsion and PFMA is excellent in that it is stable indefinitely, (e.g., over 6 months) at 4°-7° C whereas the PFD emulsion breaks down in several days at room temperature and in several weeks at 4°-7° C. PFTBA is also excellent. See for example the Journal of Microvascular Research, August 1974.

A short description of series [2]: percentage of injected PF material still in the liver of mice after stated weeks. The class given is in vivo. The source says:
As indicated above, retention of the material in the body is important. The data below compare perfluorinated tributylamine (PFTBA), decalin (PFD), and methyldecalin (PFMD), with certain of the perfluorinated polycyclic hydrocarbons of this invention which have been obtained by perfluorinating the said polycyclic materials with just CoF3. Thus, in the table below "PFDMA" is the perfluorinated product derived from dimethyladamantane, i.e. a mixture of perfluorotrimethylbicyclo [3.3.1]nonane containing about 25 percent of other materials, principally perfluorinated dimethyladamantane. "PFMA" is the perfluorinated product of methyladamantane i.e., a mixture of perfluorodimethylbicyclo [3.3.1]nonanecontaining an unidentified amount of other compounds including perfluoromethyladamantane. Finally, "PFTHDCP" is the product of tetrahydrodicyclopentadiene, i.e. perfluorobicyclo [5.3.0] decane containing about 50 percent of other materials, principally perfluorotetrahydrodicyclopentadiene.
Emulsions containing 10% of the material to be tested, surfactant and water are made up and tested in the manner specified in Science, Vol. 181, August 1973, page 681. Mice were injected with the various emulsions. The mice were killed at intervals thereafter, the liver analyzed, and the percentage of original amount of PF material injected and still in the liver was determined.

A short description of series [3]: relative emulsion stability. The class given is physicochemical. As for the experimental part: as §1
The nature of series [4]: LD50 after infusion of emulsion. The series is classed as in vivo. The note with it: emulsions: 10.9% PFD, 10% PFDMA, 5% PFMA, 10% PFTBA. The source says:
The LD50 after infusion (ml/kg) of our materials compared with others are follows: […]

This is an account of results in patent US4105798A, “Perfluoro polycyclic compounds for use as synthetic blood and perfusion media” (Sun Ventures, Inc., priority 1977, dated 1978).

As to `FC1(F)C(F)(F)C(F)(F)C2(F)C(F)(F)C(F)(F)C(F)(F)C(F)(F)C2(F)C1(F)F` (centres unmarked) [PFD, perfluorodecalin], the “optical density of emulsion” value in series [1] worked out at 0.4. Moreover, the “Percent of Dose in Liver After Stated Weeks” value (“Percent of Dose” for short) turned out to be 4% in series [2] (mouse, in vivo, 20160 min); 2% in series [2] (mouse, in vivo, 60480 min); 2% in series [2] (mouse, in vivo, 120960 min). The “time to emulsion break down” value in series [3] (4°-7° C) is reported as “several weeks”; in series [3] (room temperature), “several days”. Moreover, in series [4], the “LD50 after infusion, 1 Hr.” value worked out at 190 mL/kg. In addition, in series [4], the “LD50 after infusion, 3 Days” value came to 160 mL/kg. The “LD50 after infusion, 7 Days” value in series [4] amounted to 159 mL/kg.
Turning to `FC(F)(F)C(F)(F)C(F)(F)C(F)(F)N(C(F)(F)C(F)(F)C(F)(F)C(F)(F)F)C(F)(F)C(F)(F)C(F)(F)C(F)(F)F` [PFTBA, perfluorinated tributylamine], in series [1], the “optical density of emulsion” value is listed as 2.2. Also, the appearance of emulsion entry in series [1] (in words) is on record as “very milky in appearance”. The “Percent of Dose” value amounted to 38% in series [2] (mice, injected emulsion containing 10% of material, 2 weeks); 30% in series [2] (mice, injected emulsion containing 10% of material, 6 weeks); 30% in series [2] (mice, injected emulsion containing 10% of material, 12 weeks); 30% in series [2] (mice, injected emulsion containing 10% of material, 20 weeks). For the same compound, in series [3] (emulsion), the “relative stability of emulsion (in words)” value is given as “excellent”. Also, the “LD50 after infusion, 1 Hr.” value in series [4] turned out to be 200 mL/kg. For the same compound, the “LD50 after infusion, 3 Days” value in series [4] was 120 mL/kg. The “LD50 after infusion, 7 Days” value in series [4] came to 120 mL/kg.
Turning to methyldecalin [PFMD], the “Percent of Dose” value in series [2] (mouse, in vivo, 20160 min) worked out at 30%; in series [2] (mouse, in vivo, 60480 min), 19%; in series [2] (mouse, in vivo, 120960 min), 2%; in series [2] (mouse, in vivo, 201600 min) it was 2%.
